A word on the TGI: it is the concentration giving total growth inhibition. A higher TGI goes with less potent growth arrest. A word on the GI50: it is the concentration giving 50% growth inhibition.

These results are taken from PubChem BioAssay (NCI).

Each structure is given as a SMILES string. Where “and” joins values, the source holds several entries; their conditions need not be identical. Equal values may be shown once.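 Growth conditions: 96-well plates. Treatment: test compound, 48 hours, 5 concentrations. Analysis: linear interpolation between bracketing concentrations; unreached endpoints set to highest concentration. Here, GI50 denotes the concentration required for 50% inhibition of growth. The concentration for full growth arrest is given as TGI.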 Some results are limits rather than exact numbers.

What all share (assay): DTP human tumour cell line panel, 48 h
Test [1] relates to HCT-116 colon.
The subject of test [2] is HL-60(TB) leukemia.
Test [3] relates to SK-MEL-2 melanoma.
Test [4] deals with OVCAR-8 ovarian.
Test [5] has as its system CAKI-1 renal.
Test [6] concerns LOX IMVI melanoma.
Test [7] relates to KM12 colon.
Test [8] relates to RXF 393 renal.
The subject of test [9] is HCT-15 colon.
The subject of test [10] is CCRF-CEM leukemia.

On to `COc1ccc2c3c(c(=O)n(C)c2c1OC)C=CC(C)(C)O3`, for which the TGI in test [1] is over 100 µM; in test [2], 29.8 µM; in test [3], over 100 µM; in test [4], over 100 µM; in test [5], 38.4 µM; in test [6], over 100 µM. For the same compound, the total growth inhibition concentration (TGI) in [7] was 77 µM; in test [8], over 100 µM; in [9], 27.9 µM; in test [10], 88.3 µM.
Consider `C[C@@H]1COCCN1c1cc(C2(S(C)(=N)=O)CC2)nc(-c2ccnc3[nH]ccc23)n1` (some centres undefined), for which the GI50 was 4.05 µM in [1]; 4 µM in test [2]; 4.59 µM in test [3]; 5.41 µM in test [4]; 2.34 µM in [5]; 1.63 µM in test [6]. In addition, the GI50 in test [7] is 5.72 µM; in [8], 1.46 µM; in test [9] it was 3.98 µM; in test [10] it was 1.55 µM. Moreover, the TGI is over 100 µM in [1]; over 100 µM in test [2]; 18.9 µM in test [3]; 58.5 µM in test [4]; 25.5 µM in test [5]; 12.7 µM in test [6]. In addition, the TGI in test [7] is 63.1 µM; in [8], 6.76 µM; in test [9], over 100 µM; in [10], over 100 µM.
Turning to `C[C@H]1[C@H](C)CC[C@]2(C(=O)O)CC[C@]3(C)C(=CC[C@@H]4[C@@]5(C)C/C(=C/c6cccnc6)[C@H](O)C(C)(C)[C@@H]5CC[C@]43C)[C@H]12`, the GI50 in [1] was 10.7 µM; in test [2], 9.83 µM; in test [3], 13.9 µM; in test [4], 20.5 µM; in [5] it was 17.8 µM; in [6], 13.4 µM. The GI50 in test [7] was 7.61 µM; in test [8], 13.7 µM; in test [9], 10.7 µM; in [10], 6.43 µM. Besides, the TGI in test [1] was 26.8 µM; in test [2] it was 32.6 µM; in test [3], 44.4 µM; in [4], over 100 µM; in [5] it was over 100 µM; in [6], 28.1 µM. The TGI turned out to be 36.1 µM in test [7], 36.6 µM in [8], 52 µM in test [9] and 40.8 µM in [10].
Take `NNC(=O)CCC(=O)NC1C2CC3CC(C2)CC1C3` (centres undefined): the TGI in [1], in test [2], in test [3], in test [4], in test [5] and in [6] was over 100 µM each time. In addition, the TGI in [7], in [8], in test [9] and in test [10] was over 100 µM each time.
For the compound `O=C(CN1CCN(c2ccccc2)CC1)N1CCc2c([nH]c3ccccc23)C1c1cccnc1` (centres undefined), the TGI is 21.3 µM in test [1]; over 100 µM in test [2]; over 100 µM in test [3]; over 100 µM in [4]; over 72.6 µM in test [5]; over 100 µM in test [6]. In addition, the TGI in test [7] is over 100 µM; in test [8], 49.5 µM; in test [9], over 100 µM; in test [10], over 100 µM.
For the compound `Fc1cccc(COc2ccc(Nc3ncnc4cc(-c5ccc[nH]5)sc34)cc2Cl)c1`, the GI50 in test [1] was 7.46 µM; in test [2], 0.354 µM; in [3] it was 6.77 µM; in test [4], 3.38 µM; in test [5], 0.681 µM; in test [6], 8.04 µM. Further, the GI50 is 0.156 µM in test [7], 2.17 µM in test [8], 0.264 µM in test [9] and 0.44 µM in test [10]. Further, the TGI in test [1] was over 25 µM; in test [2], 3.22 µM; in test [3], over 25 µM; in test [4], over 25 µM; in [5], 6.89 µM; in [6], over 22.4 µM. Further, the total growth inhibition concentration (TGI) was 5.54 µM in test [7], 6.62 µM in [8], over 13 µM in [9] and over 25 µM in test [10].
As for `CCc1cc(O)c(Cl)c(C)c1Cl`, the TGI in test [1] was 31.5 µM; in [2] it was over 100 µM; in [3], over 100 µM; in test [4], 40.6 µM; in [5], 32.7 µM; in test [6], 31.8 µM. For the same compound, the TGI in test [7] was determined as 28.5 µM; in test [8], 28.7 µM; in test [9], 34.6 µM; in [10], 50.1 µM.
`N#CC(C(=O)C(=O)NCCCNC(=O)C(=O)C(C#N)c1ccccc1)c1ccccc1` (centres undefined): the TGI in [1], in [2], in test [3], in [4], in [5] and in test [6] was over 100 µM in each case. Moreover, the TGI in test [7], in test [8], in test [9] and in test [10] was over 100 µM in each case.
For the compound `CC1S(=O)(=O)OCCOS1(=O)=O`, the TGI in test [1] is over 100 µM; in test [2], 87.1 µM; in [3] it was over 100 µM; in [4] it was over 100 µM; in [5], over 100 µM; in test [6], over 100 µM. Moreover, the TGI in [7], in [8], in test [9] and in test [10] was over 100 µM each time.
For the compound `CC[C@H](CC#N)OC(=O)N[C@@H](C)c1cccc(NC(=O)Nc2ccc(-c3cnco3)c(OC)c2)c1`, the GI50 in test [1] is 0.026 µM; in test [2] it was 0.184 µM; in test [3] it was 4.05 µM; in test [4], 0.0612 µM; in test [5], 0.0696 µM; in test [6], 0.0242 µM. Moreover, the GI50 was 0.0715 µM in test [7], 0.266 µM in test [8], 0.119 µM in [9] and under 0.023 µM in [10]. Further, the TGI was over 45.8 µM in test [1]; 38.5 µM in test [2]; 34.8 µM in test [3]; 23.5 µM in test [4]; 0.396 µM in test [5]; 24.8 µM in test [6]. Besides, the TGI in test [7] is 18.1 µM; in [8] it was over 22.9 µM; in [9], over 51.4 µM; in [10], 35.8 µM.
On to `CCOC(=O)NN1C(=O)C(=P(c2ccccc2)(c2ccccc2)c2ccccc2)C(C(=O)OCC)=C1C`, for which the concentration for total growth inhibition (TGI) in [1], in [2], in [3], in [4], in test [5] and in [6] was over 100 µM throughout. Also, the TGI in [7], in test [8], in test [9] and in [10] was over 100 µM each time.
Regarding `Cc1cc(C(C#N)c2ccc(Cl)cc2)c(Cl)cc1NC(=O)c1cc(I)cc(I)c1O` (centres undefined), the GI50 was 17.7 µM and 14.5 µM in test [1]; 4.34 µM and 22.1 µM in [2]; 7.82 µM and 14.9 µM in test [3]; 6.02 µM and 21.4 µM in test [4]; 10.2 µM and 14.3 µM in test [5]; 10.4 µM and 16.7 µM in test [6]. Moreover, the GI50 is 13.7 µM and 15.9 µM in test [7]; 10.8 µM and 5.95 µM in test [8]; 5.25 µM and 15.8 µM in test [9]; 3.87 µM and 17.8 µM in test [10]. Besides, the TGI in test [1] was 31.5 µM and 27.6 µM; in [2], 15.9 µM and 48.9 µM; in test [3], > 100 µM and 40 µM; in test [4], > 100 µM and 52.1 µM; in test [5], 35.1 µM and 40.9 µM; in test [6] it was 26.1 µM and 35.5 µM. In addition, the TGI in [7] was 29.8 µM and 30.5 µM; in test [8] it was 23.7 µM and 19.4 µM; in test [9], 19.8 µM and 31.7 µM; in test [10], 17 µM and 47.1 µM.
As to `COc1cccc(C(=O)C2C(=O)N(C)CCc3ccccc32)c1OC` (centres undefined), the TGI in test [1], in [2], in test [3], in test [4], in test [5] and in test [6] was over 100 µM throughout. The TGI in test [7], in test [8], in test [9] and in [10] was over 100 µM each time.
As to `COc1ccc(O)c(C#N)c1C#N`, the TGI in test [1], in test [2], in test [3], in test [4], in test [5] and in test [6] was over 100 µM in each case. The TGI in test [7], in test [8], in test [9] and in [10] was over 100 µM each time.
On to `Cc1cccc(C(C)C)c1NC(=O)C(=O)CC(=O)c1c(C)n([O-])c2ccccc2[n+]1=O`, for which the concentration for total growth inhibition (TGI) is over 100 µM in test [1]; over 100 µM in [2]; 98.1 µM in test [3]; over 100 µM in test [4]; over 100 µM in [5]; over 100 µM in [6]. Moreover, the TGI in test [7] was over 100 µM; in [8], over 100 µM; in [9], 62.2 µM; in [10] it was 99.7 µM.
Regarding `CCCCCCCCCCCCCC(=O)CBr`, the concentration for total growth inhibition (TGI) is 17 µM in test [1]; 3.08 µM in [2]; 26.3 µM in [3]; 35.6 µM in [4]; 3.13 µM in [5]; 23 µM in [6]. Further, the TGI was determined as 16.9 µM in test [7], 10.5 µM in test [8], 28.3 µM in [9] and 2.6 µM in [10].
For `O=C1/C(=C/c2ccc(O)cc2)COc2ccc(-c3ccccc3)cc21`, the GI50 in [1] is 3.38 µM; in [2], 0.465 µM; in test [3], 16.8 µM; in test [4], 9.27 µM; in test [5] it was 6.9 µM; in test [6], 3.54 µM. The GI50 in [7] is 2.28 µM; in test [8] it was 3.35 µM; in test [9], 2.89 µM; in [10], 0.237 µM. The TGI in [1] is 14.4 µM; in [2], over 38.2 µM; in [3] it was 39 µM; in test [4] it was 23.1 µM; in test [5], 20.2 µM; in test [6], 13.3 µM. In addition, the values for the TGI in [7], in test [8] and in test [9] were 7.54 µM, 8.25 µM and 12.4 µM, respectively.
Turning to `C=C(C)C(=O)O[C@H]1[C@H]2[C@H](OC(=O)[C@H]2C)[C@H](O)[C@@H](C)[C@@H]2C=CC(=O)[C@]21C`, the TGI stood at 4.6 µM in test [1]; 2.86 µM in test [2]; 18.4 µM in [3]; 4.07 µM in [4]; 5.66 µM in test [5]; 7.74 µM in [6]. Moreover, the TGI in test [7] was 7.38 µM; in test [8], 4.13 µM; in test [9], 6.38 µM; in [10], 7.53 µM.
On to `CCCCN(Cc1ccc(F)cc1)c1ccc(CO)c(Cl)c1`, for which the GI50 in [1] is 0.906 µM; in [2], 14.1 µM; in [3], 14.5 µM; in test [4], 14.2 µM; in [5], 11.7 µM; in [6], 16.3 µM. Further, the GI50 was 17.5 µM in test [7], 7.16 µM in test [8], 13.4 µM in test [9] and 15.8 µM in test [10]. Besides, the TGI is 13.2 µM in [1]; 34 µM in test [2]; 29.9 µM in test [3]; 28.5 µM in test [4]; 25.5 µM in [5]; 31.5 µM in [6]. Moreover, the TGI in [7] stood at 33 µM; in test [8], 21.1 µM; in test [9], 28.5 µM; in test [10] it was 38.1 µM.
For `COc1cc[nH]c1/C=C1\C(=O)Nc2ccc(F)c(I)c21`, the GI50 was over 25 µM in test [1]; over 25 µM in [2]; over 25 µM in test [3]; over 25 µM in test [4]; 0.557 µM in test [5]; over 25 µM in [6]. Further, the GI50 is 1.25 µM in [7], over 25 µM in test [8], over 25 µM in test [9] and over 25 µM in [10]. Moreover, the TGI in test [1], in test [2], in test [3], in [4], in test [5] and in test [6] was over 25 µM in each case. The TGI in test [7], in [8], in test [9] and in test [10] was over 25 µM in each case.
